# Assay results: US6358885B1, “Substituted phenylheterocyclic herbicides” (Mississippi State University, priority 1992, dated 2002)
# What was measured:
# lambsquarters = experiment: Test C preemergence/postemergence greenhouse plant response rating 0 to 100; assay type: in vivo, Chenopodium album; conditions: POSTEMERGENCE
# Text: (§1) The compounds evaluated in this test were formulated in a non-phytoxic solvent and applied to the soil surface before plant seedlings emerged (preemergence application), to water that covered the soil surface (flood application), and to plants that were in the one-to-four leaf stage (postemergence application). A sandy loam soil was used for the preemergence and postemergence tests, while a silt loam soil was used in the flood test. Water depth was approximately 2.5 cm for the flood test and was maintained at this level for the duration of the test. Plant species in the preemergence and postemergence tests consisted of barley (Hordeum vulgare), bedstraw (Galium aparine), blackgrass (Alopecurus myosuroides), chickweed (Stellaria media), corn (Zea mays), cotton (Gossypium hirsutum), crabgrass (Digitaria sanguinalis), downy brome (Bromus tectorum), giant foxtail (Setaria faberii), lambsquarters (Chenopodium album), morningglory (Ipomoea hederacea), pigweed ([…]), rape (Brassica napus), ryegrass (Lolium multiflorum), sorghum (Sorghum bicolor), soybean (Glycine max), speedwell (Veronica persica), sugar beet (Beta vulgaris), velvetleaf (Abutilon theophrasti), wheat (Triticum aestivum), wild buckwheat (Polygonum convolvulus), and wild oat (Avena fatua). All plant species were planted one day before application of the compound for the preemergence portion-of this test. Plantings of these species were adjusted to produce plants of appropriate size for the post-emergence portion of the test. […] All plant species were grown using normal greenhouse practices. Visual evaluations of injury expressed on treated plants, when compared to untreated controls, were recorded approximately fourteen to twenty one days after application of the test compound. […] A dash (-) response means no test result.
# ryegrass = experiment: as above; assay type: in vivo, Lolium multiflorum; conditions: POSTEMERGENCE
# Text: as §1
# rape = experiment: as above; assay type: in vivo, Brassica napus; conditions: POSTEMERGENCE
# Text: as §1
# bedstraw = experiment: Test B preemergence/postemergence greenhouse plant response rating 0 to 10; assay type: in vivo, Galium aparine; conditions: POSTEMERGENCE
# Summary of the method: (§2)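 Postemergence treatment of plants two to eighteen cm tall ran alongside preemergence treatment of planted seed, each using compound in a non-phytotoxic solvent.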
# sugar beet = experiment: Test C preemergence/postemergence greenhouse plant response rating 0 to 100; assay type: in vivo, Beta vulgaris; conditions: POSTEMERGENCE
# Text: as §1
# barley = experiment: Test B preemergence/postemergence greenhouse plant response rating 0 to 10; assay type: in vivo, Hordeum vulgare; conditions: for Plant response rating, Barley: 0 to 10 scale
# Summary of the method: as §2
# barnyardgrass = experiment: Test C flood test plant response rating 0 to 100; assay type: in vivo, Echinochloa crus-galli
# Text: as §1
# cotton = experiment: Test B preemergence/postemergence greenhouse plant response rating 0 to 10; assay type: in vivo, Gossypium hirsutum; conditions: for Plant response rating, Cotton: 0 to 10 scale
# Summary of the method: as §2
# giant foxtail = experiment: Test C preemergence/postemergence greenhouse plant response rating 0 to 100; assay type: in vivo, Setaria faberii; conditions: POSTEMERGENCE
# Text: as §1
# blackgrass [1] = experiment: as above; assay type: in vivo, Alopecurus myosuroides; conditions: POSTEMERGENCE
# Text: as §1
# wild buckwheat = experiment: Test B preemergence/postemergence greenhouse plant response rating 0 to 10; assay type: in vivo, Polygonum convolvulus; conditions: 0 to 10 scale
# Summary of the method: as §2
# blackgrass [2] = experiment: as above; assay type: in vivo, Alopecurus myosuroides; conditions: for Plant response rating, Blackgrass: 0 to 10 scale
# Summary of the method: as §2
# cheatgrass = experiment: as above; assay type: in vivo, Bromus secalinus; conditions: for Plant response rating, Cheatgrass: 0 to 10 scale
# Summary of the method: as §2
# cocklebur = experiment: as above; assay type: in vivo, Xanthium pensylvanicum; conditions: for Plant response rating, Cocklebur: 0 to 10 scale
# Summary of the method: as §2
# duck salad = experiment: Test C flood test plant response rating 0 to 100; assay type: in vivo, Heteranthera limosa
# Text: as §1
# rice = experiment: Test B preemergence/postemergence greenhouse plant response rating 0 to 10; assay type: in vivo, Oryza sativa; conditions: 0 to 10 scale
# Summary of the method: as §2
# corn = experiment: Test C preemergence/postemergence greenhouse plant response rating 0 to 100; assay type: in vivo, Zea mays; conditions: POSTEMERGENCE
# Text: as §1
# wheat = experiment: as above; assay type: in vivo, Triticum aestivum; conditions: POSTEMERGENCE
# Text: as §1
# [3] = POSTEMERGENCE section, flood test, Rate 1 g/ha
# [4] = Rate 16 g/ha, under POSTEMERGENCE head (flood test species)
# [5] = flood test species listed under POSTEMERGENCE, 62 g/ha, 0 to 100 scale
smiles,measurement,setting,value
CC(C)N1C(=O)COc2cc(F)c(-c3nn4c(c3Cl)CCCC4)cc21 [Compound 31],Plant response rating Lambsquarters,"lambsquarters; 62 g/ha, 0 to 100 scale",95
same,"Plant response rating (0 to 100), Lambsquarters",lambsquarters; Rate 1 g/ha,40
same,"Plant response rating (0 to 100), Lambsquarters",lambsquarters; Rate 16 g/ha,85
same,Plant response rating Ryegrass,"ryegrass; 62 g/ha, 0 to 100 scale",40
same,"Plant response rating (0 to 100), Ryegrass",ryegrass; Rate 1 g/ha,10
same,"Plant response rating (0 to 100), Ryegrass",ryegrass; Rate 4 g/ha,20
same,"Plant response rating (0 to 100), Ryegrass",ryegrass; Rate 16 g/ha,30
same,"Plant response rating, Rape","rape; 62 g/ha, 0 to 100 scale",100
same,"Plant response rating (0 to 100), Rape",rape; Rate 1 g/ha,30
same,"Plant response rating (0 to 100), Rape",rape; Rate 4 g/ha,60
same,"Plant response rating (0 to 100), Rape",rape; Rate 16 g/ha,95
same,"Plant response rating, Bedstraw","bedstraw; Rate 10 g/ha, 0 to 10 scale",10
same,"Plant response rating (0 to 10 scale), Bedstraw",bedstraw; Rate 50 g/ha,10
same,"Plant response rating, Sugar beet","sugar beet; 62 g/ha, 0 to 100 scale",100
same,"Plant response rating (0 to 100), Sugar beet",sugar beet; Rate 1 g/ha,60
same,"Plant response rating (0 to 100), Sugar beet",sugar beet; Rate 4 g/ha,100
same,"Plant response rating (0 to 100), Sugar beet",sugar beet; Rate 16 g/ha,100
same,"Plant response rating, Barley","barley; POSTEMERGENCE, Rate 10 g/ha",5
same,"Plant response rating (0 to 10 scale), Barley","barley; POSTEMERGENCE, Rate 50 g/ha",5
same,"Plant response rating, Barley","barley; PREEMERGENCE, Rate 10 g/ha",0
same,"Plant response rating, Barley","barley; PREEMERGENCE, Rate 50 g/ha",0
same,"Plant response rating (0 to 100), Barnyardgrass",barnyardgrass; [3],20
same,"Plant response rating (0 to 100), Barnyardgrass","barnyardgrass; Rate 4 g/ha, under POSTEMERGENCE head (flood test species)",65
same,"Plant response rating (0 to 100), Barnyardgrass",barnyardgrass; [4],90
same,"Plant response rating, Barnyardgrass",barnyardgrass; [5],100
same,"Plant response rating, Cotton","cotton; POSTEMERGENCE, Rate 10 g/ha",10
same,"Plant response rating (0 to 10 scale), Cotton","cotton; POSTEMERGENCE, Rate 50 g/ha",10
same,"Plant response rating, Cotton","cotton; PREEMERGENCE, Rate 10 g/ha",0
same,"Plant response rating, Cotton","cotton; PREEMERGENCE, Rate 50 g/ha",0
same,"Plant response rating, Giant foxtail","giant foxtail; 62 g/ha, 0 to 100 scale",40
same,"Plant response rating (0 to 100), Giant foxtail",giant foxtail; Rate 1 g/ha,10
same,"Plant response rating (0 to 100), Giant foxtail",giant foxtail; Rate 4 g/ha,20
same,"Plant response rating (0 to 100), Giant foxtail",giant foxtail; Rate 16 g/ha,30
same,"Plant response rating, Blackgrass","blackgrass [1]; 62 g/ha, 0 to 100 scale",40
same,"Plant response rating (0 to 100), Blackgrass",blackgrass [1]; Rate 1 g/ha,10
same,"Plant response rating (0 to 100), Blackgrass",blackgrass [1]; Rate 4 g/ha,20
same,"Plant response rating (0 to 100), Blackgrass",blackgrass [1]; Rate 16 g/ha,30
same,"Plant response rating, Wild buckwheat","wild buckwheat; POSTEMERGENCE, Rate 10 g/ha",10
same,"Plant response rating, Wild buckwheat","wild buckwheat; POSTEMERGENCE, Rate 50 g/ha",10
same,"Plant response rating, Wild buckwheat","wild buckwheat; PREEMERGENCE, Rate 50 g/ha",10
same,"Plant response rating, Blackgrass","blackgrass [2]; POSTEMERGENCE, Rate 10 g/ha",4
same,"Plant response rating (0 to 10 scale), Blackgrass","blackgrass [2]; POSTEMERGENCE, Rate 50 g/ha",4
same,"Plant response rating, Blackgrass","blackgrass [2]; PREEMERGENCE, Rate 10 g/ha",3
same,"Plant response rating, Blackgrass","blackgrass [2]; PREEMERGENCE, Rate 50 g/ha",6
same,"Plant response rating, Cheatgrass","cheatgrass; POSTEMERGENCE, Rate 10 g/ha",5
same,"Plant response rating (0 to 10 scale), Cheatgrass","cheatgrass; POSTEMERGENCE, Rate 50 g/ha",6
same,"Plant response rating, Cheatgrass","cheatgrass; PREEMERGENCE, Rate 10 g/ha",2
same,"Plant response rating, Cheatgrass","cheatgrass; PREEMERGENCE, Rate 50 g/ha",6
same,"Plant response rating, Cocklebur","cocklebur; POSTEMERGENCE, Rate 10 g/ha",9
same,"Plant response rating (0 to 10 scale), Cocklebur","cocklebur; POSTEMERGENCE, Rate 50 g/ha",9
same,"Plant response rating, Cocklebur","cocklebur; PREEMERGENCE, Rate 10 g/ha",0
same,"Plant response rating, Cocklebur","cocklebur; PREEMERGENCE, Rate 50 g/ha",3
same,"Plant response rating (0 to 100), Duck salad",duck salad; [3],0
same,"Plant response rating (0 to 100), Duck salad","duck salad; POSTEMERGENCE section, flood test, Rate 4 g/ha",0
same,"Plant response rating (0 to 100), Duck salad",duck salad; [4],40
same,Plant response rating Duck salad,duck salad; [5],40
same,"Plant response rating, Rice","rice; POSTEMERGENCE, Rate 10 g/ha",4
same,"Plant response rating, Rice","rice; POSTEMERGENCE, Rate 50 g/ha",7
same,"Plant response rating, Rice","rice; PREEMERGENCE, Rate 50 g/ha",0
same,"Plant response rating, Corn","corn; 62 g/ha, 0 to 100 scale",50
same,"Plant response rating (0 to 100), Corn",corn; Rate 1 g/ha,20
same,"Plant response rating (0 to 100), Corn",corn; Rate 4 g/ha,30
same,"Plant response rating (0 to 100), Corn",corn; Rate 16 g/ha,40
same,"Plant response rating, Wheat","wheat; 62 g/ha, 0 to 100 scale",40
same,"Plant response rating (0 to 100), Wheat",wheat; Rate 1 g/ha,10
same,"Plant response rating (0 to 100), Wheat",wheat; Rate 4 g/ha,30
same,"Plant response rating (0 to 100), Wheat",wheat; Rate 16 g/ha,30
